The text below walks through data of US9753018B2, “Selenium-containing compound” (Fisheries Research Agency, priority 2009, dated 2017).

Data set [1] can be described thus: DPPH radical-scavenging ability (RS50). It is filed as biochemical. The settings on record: for EC50: concentration at which DPPH radical-scavenging rate was 50%, room temperature 30 minutes, absorbance 595 nm. Here is the method:
In order to evaluate the chemical antioxidant ability of the selenium-containing compound (chemical formula 4: oxidized dimer) according to one embodiment of the invention, the 1,1-diphenyl-2-picrylhydrazyl (DPPH) radical-scavenging ability was measured (Hideo Kimura, Kota Naganuma, Masato Kojima, Masakazu Komatsu, Takumi Onda, and Masao Tsuji, Yamanashi Prefectural Industrial Technology Center Report, No. 22, pp. 59-63 (2008)).
Specifically, a selenium-containing compound (selenium content: 1.62 μM) derived from the meat of Xiphias gladius, a 10 mM aqueous solution of a water-soluble vitamin E derivative (commercially available antioxidant) (Trolox (registered trademark) (CAS No.: 56305-04-5, manufactured by Roche)), and a 4.36 mM aqueous solution of (+)-ergothioneine (CAS No.: 497-30-3, manufactured by SIGMA) were repeatedly 2-fold diluted with purified water to prepare 2 to 128-fold diluted test solutions.
10 μl of the test solution and 100 μl of a DPPH solution (0.35 mM, prepared by dissolving 1.38 mg of DPPH in 5 ml of ethanol, and adding 5 ml of a 0.1 M phosphate buffer (pH: 6.8) to the solution) were mixed on a 96-well micro test plate (BD Falcon (registered trademark), #1722, manufactured by Becton, and Dickinson and Company), and reacted at room temperature for 30 minutes in a dark place. The absorbance at 595 nm was then measured. A case of using purified water (absorbance: 0.59) as the test solution was determined that the DPPH radical-scavenging rate was 0%, and a case of using 10 mM Trolox (registered trademark) (absorbance: 0.19) as the test solution was determined that the DPPH radical-scavenging rate was 100%. The concentration at which the DPPH radical-scavenging rate was 50% was determined to be the RS50 of each substance, and taken as the antioxidant ability.

Data set [2] can be described thus: Solubility (physico-chemical properties). It is filed as physicochemical. The settings on record: solvents as named in the value.
Data set [3] has as its system animal cells (ZE, YT, RTG-2, HUV-EC-C, AT2KY, TIG-S3, HEK293 cells). The experiment in a line: Cell proliferation-promoting effect on cultured cells (cell count by trypan blue staining). It is filed as cell-based. Conditions: 0-100 nM, 0-5 days, fish and human cell lines. The protocol:
Specifically, Danio rerio embryo ZE cells (National Research Institute of Fisheries Science), Seriola quinqueradiata tail fin YT cells (National Research Institute of Fisheries Science), and Oncorhynchus mykiss gonad RTG-2 cells (ATCCCCL55) were cultured in an L-15 medium containing 2% fetal bovine serum (30,000 cells/ml).
Human vessel endothelial cells (human umbilical cord vein HUV-EC-C, Health Science Research Resources Bank (http://www.jhsf.or.jp)) were cultured in an MCDB131 medium containing 10% fetal bovine serum (10,000 cells/ml).
(§1) AT cells derived from the skin of a human patient with ataxia telangiectasia syndrome (AT2KY, Health Science Research Resources Bank, JCRB0316), human skin TIG-S3 cells (Health Science Research Resources Bank, JCRB0544), and human kidney HEK293 cells (Health Science Research Resources Bank, JCRB9068) were cultured in a DMEM medium containing 10% fetal bovine serum (15,000 cells/ml).
The selenium-containing compound was added to each culture medium (containing 2% serum) so that the final concentration was 0, 5, 10, 25, 50, or 100 nM. […] The cell count was determined by trypan blue staining after culturing the cells for 0, 1, 2, 3, 4, and 5 days.

Data set [4] relates to hemoglobin of rabbit red cells. The experiment in a line: Metmyoglobin formation inhibitory effect (hemoglobin collected from red cells). Conditions: 10, 25 or 50 nM in medium; hemoglobin solution incubated 37° C. 3 hours; versus control. It is filed as cell-based. Here is the method: (§2) Preserved rabbit blood (Nippon Biotest Laboratories Inc.) was washed three times with a physiological saline solution (centrifuged at 2000 rpm and 4° C. for 5 min) to collect red cells. The red cells were suspended in a 4-fold amount of an RPMI medium (GIBCO (registered trademark) RPMI Medium 1640 manufactured by Invitrogen Co.), and cultured at 37° C. for 1 day using a carbon dioxide incubator. The selenium-containing compound was added to the culture solution so that the final concentration of the selenium-containing compound in the medium was 10, 25, or 50 nM (control: the selenium-containing compound was not added), and the cells were cultured. The red cells were then collected by centrifugation (2000×g, 4° C., 5 min), washed three times with a phosphate buffered saline (PBS), and collected by centrifugation. The red cells were hemolyzed by adding a 10 mM sodium phosphate buffer (pH: 7.2) to the red cell pellets, and centrifuged (15,000×g, 4° C., 10 min). The supernatant hemoglobin solution was then collected. The hemoglobin solution was diluted with a 100-fold amount of a 50 mM sodium phosphate buffer (pH: 6.8), and incubated at 37° C. for 3 hours. The absorbance ratio at 405 nm and 430 nm before and after incubation was measured, and the rate of metmyoglobin formation of the hemoglobin was calculated.

Data set [5] concerns human vessel endothelial cells. Put plainly: Cell proliferation rate (MTT) under hydrogen peroxide oxidative stress. It is filed as cell-based. Conditions: 5 mM, 1 hour pre-culture, then hydrogen peroxide 25 or 50 μM, 24 hours. Here is the method: The in vivo antioxidant effect of the selenium-containing compound (chemical formula 4: oxidized dimer) according to one embodiment of the invention was determined using human vessel endothelial cells. Specifically, human vessel endothelial cells (10,000 cells/ml) were cultured on a 48-well plate using an MCDB131 medium containing 10% fetal bovine serum. The selenium-containing compound was added to the culture solution so that the final concentration was 5 mM (control: the selenium-containing compound was not added), and the cells were cultured at 37° C. for 1 hour under 5% carbon dioxide. After the addition of hydrogen peroxide to a final concentration of 25 or 50 μM, the cells were cultured at 37° C. for 24 hours under 5% carbon dioxide. The cell proliferation rate was then determined by the MTT assay. […] Specifically, it was confirmed that the selenium-containing compound (chemical formula 4: oxidized dimer) according to one embodiment of the invention has an in vivo antioxidant effect.

Data set [6] deals with human vessel endothelial cells (human umbilical cord vein HUV-EC-C). The experiment in a line: MTT assay of human vessel endothelial cells cultured with selenium compounds. It is filed as cell-based. The protocol:
In order to clarify the intracellular function of the selenium-containing compound (chemical formula 4: oxidized dimer) according to one embodiment of the invention, the selenium-containing compound (chemical formula 4: oxidized dimer) according to one embodiment of the invention was administered to human vessel endothelial cells (human umbilical cord vein HUV-EC-C, Health Science Research Resources Bank (http://www.jhsf.or.jp)).
Specifically, human vessel endothelial cells (10,000 cells/ml) were cultured on a 48-well plate using an MCDB131 medium (manufactured by Invitrogen) containing 10% fetal bovine serum. […] The passage number was set to 5 or less in order to maintain the properties of the human vessel endothelial cells.
The mitochondrial respiratory chain activity was determined using an MTT assay kit (manufactured by Nacalai Tesque, Inc.). Specifically, after culturing the human vessel endothelial cells, an MTT solution was added to the culture solution in an amount 1/10th of that of the culture solution, and the cells were cultured at 37° C. for 3 hours under 5% carbon dioxide. An equal amount of isopropanol was then added to the culture solution to extract a formazan dye, and the absorbance at 595 nm was determined.
For orientation: Tetrazolium assays rely on reduction of a dye to a coloured formazan, in cell work by metabolically active cells.

In data set [7] the test system is heme protein (myoglobin, hemoglobin). Put plainly: Heme iron binding effect (Se/Fe determination in heme proteins). More on the design: species or system Thunnus orientalis, rabbit, Physeter macrocephalus. The settings on record: Se/Fe molar ratio of purified myoglobin and hemoglobin 0.003, 0.0003, 0.001. The protocol:
Since it was confirmed that the selenium-containing compound has a heme protein auto-oxidation inhibitory effect (see “5. Metmyoglobin formation inhibitory effect of selenium-containing compound”), the binding capability of the selenium-containing compound with heme proteins was determined. Physeter macrocephalus (sperm whale) myoglobin available from SIGMA was used. 100 g of the dark muscle of Thunnus orientalis was mixed with a 5-fold amount of cold water, ground using a POLYTRON™ homogenizer, and centrifuged (6000×g, 10 min). The supernatant liquid was collected, and passed through a Sephacryl-100 column (16 mm×60 cm, manufactured by Pharmacia) that was equilibrated with a 0.05 M Tris-HCl buffer (pH: 7) containing 0.1 M salt to purify myoglobin derived from the dark muscle of Thunnus orientalis. […]
The selenium content in the Physeter macrocephalus myoglobin, the Thunnus orientalis myoglobin, the rabbit hemoglobin, and the Thunnus orientalis hemoglobin was measured. Selenium was detected from each sample. The elements contained in the Physeter macrocephalus myoglobin were measured by HPLC-ICP-MS.
The sample was wet-decomposed using nitric acid and hydrogen peroxide. Iron was quantitatively determined using an inductively coupled plasma atomic emission spectrometer (ICP-AES) (“ICPE-9000” manufactured by Shimadzu Corporation), and selenium was quantitatively determined by fluorometry. […]

For data set [8], the system named is AT cells derived from the skin of a human patient with ataxia telangiectasia syndrome (AT2KY). Put plainly: Cell proliferation-promoting effect on AT cells (cell count by trypan blue staining). It is filed as cell-based. The settings on record: 0-100 nM, 37° C., 0-5 days. Here is the method: as §1
The selenium-containing compound was added to each culture medium (containing 2% serum) so that the final concentration was 0, 5, 10, 25, 50, or 100 nM. The Danio rerio embryo ZE cells were cultured at 25° C., the Seriola quinqueradiata tail fin YT cells were cultured at 20° C., and Oncorhynchus mykiss gonad RTG-2 cells were cultured at 15° C., and the human vessel endothelial cells, the AT cells derived from the skin of a human patient with ataxia telangiectasia syndrome, the human skin TIG-S3 cells, and the human kidney HEK293 cells were cultured at 37° C. The cell count was determined by trypan blue staining after culturing the cells for 0, 1, 2, 3, 4, and 5 days. […]

The next data set concerns rabbit red cells. Put plainly: Active oxygen level in red cells (hydroxyphenyl fluorescein). It is filed as cell-based. Conditions: HPF fluorescence; versus control. The protocol:
as §2, with “The red cells were hemolyzed by adding a 10 mM sodium phosphate buffer (pH: 7.2) to the red cell pellets, and centrifuged (15,000×g, 4° C., 10 min). The supernatant hemoglobin solution was then collected. The hemoglobin solution was diluted with a 100-fold amount of a 50 mM sodium phosphate buffer (pH: 6.8), and incubated at 37° C. for 3 hours.” left out
The active oxygen level in the red cells was also measured using hydroxyphenyl fluorescein (HPF) (manufactured by Sekisui Medical Co., Ltd.). […] The fluorescence intensity (excitation wavelength: 490 nm, fluorescence wavelength: 515 nm) due to the reaction product with active oxygen was measured, and used as an index of the active oxygen level.

What is called EC50 is the concentration giving half of the maximal effect. With `C[N+](C)(C)[C@@H](Cc1c[nH]c(=S)[nH]1)C(=O)[O-]` [L-(+)-ergothioneine, reference compound], it took 1700 µM to reach a half-maximal effect in data set [1] (EC50).

Turning to `Cc1c(C)c2c(c(C)c1O)CCC(C)(C(=O)O)O2` (stereo not shown) [Trolox, 6-hydroxy-2,5,7,8-tetrametylchroman-2-carboxylic acid, reference compound], in data set [1], a half-maximal effect (EC50) was put at 880 µM.

On to `C[N+](C)(C)C(Cc1cnc([Se][Se]c2ncc(CC(C(=O)[O-])[N+](C)(C)C)[nH]2)[nH]1)C(=O)[O-]` (stereo not shown) [chemical formula 4, 3,3′-(2,2′-diselanediylbis(1H-imidazole-5,2-diyl))bis(2-(trimethylammonio)propanoate)], for which the Solubility entry in [2] (in acetone and acetonitrile) was “scarcely soluble in acetone and acetonitrile”; in data set [2] (in water, ethanol and methanol) it was “Soluble in water, ethanol, and methanol;”. In data set [3], the “cell proliferation (cell count)” value is “significantly promotes proliferation of animal cells”. Also, the “concentration giving radical-scavenging ability equal to L-(+)-ergothioneine, as fraction of ergothioneine concentration” value in data set [1] (DPPH, relative to L-(+)-ergothioneine) is recorded as 1/907. For the same compound, the “concentration giving radical-scavenging ability equal to Trolox, as fraction of Trolox concentration” value in data set [1] (DPPH, relative to water-soluble vitamin E derivative (Trolox)) is 1/456. The “radical-scavenging ability higher than Trolox by a factor” value in [1] (chemical test, relative to Trolox) is recorded as “about 500”. Moreover, the midpoint of the response in data set [1], the EC50, lay at 1.9 µM. Besides, the “rate of metmyoglobin formation of hemoglobin” value in data set [4] was “lower than that of the control”. For the same compound, in [5], the “cellular proliferative potential under oxidative stress” value is given as “improved”. Moreover, the “effect on cell proliferation (MTT)” value in data set [6] (5 mM, 24 hours, 37° C.) is reported as “cell proliferation-promoting effect”. For the same compound, the “cytotoxicity compared with known selenium-containing compounds” value in [6] (versus selenious acid, selenocystine, selenomethionine) was “very low cytotoxicity”. The “binding to heme protein” value in data set [7] is “bound to a heme protein”. The “proliferation of AT cells” value in data set [8] is reported as “effect of promoting proliferation of the AT cells”. The “active oxygen level in the red cells” value with rabbit red cells was “lower than that of the control”.

For `N[C@@H](C[Se][Se]C[C@H](N)C(=O)O)C(=O)O` [selenocystine], in [6] (5 nM added to culture medium), the “effect on cell proliferation (MTT)” value is “cell death occurred”.

Turning to `C[Se]CC[C@H](N)C(=O)O` [selenomethionine], the “effect on cell proliferation (MTT)” value in [6] (5 nM added to culture medium) is reported as “cell death occurred”.

On to `O=[Se](O)O` [sodium selenite], for which, in data set [6] (5 nM added to culture medium), the “effect on cell proliferation (MTT)” value is “cell death occurred”.
